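All cell lines were grown in 96-well plates and treated with compound for 48 hours. GI50: concentration for 50% inhibition of growth. TGI is the concentration that stops growth completely.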

Here are results for 18 molecules from PubChem BioAssay (NCI).

The subject of the first test is COLO 205 colon. Nature of the test: NCI anticancer screen, dose series, 48 h.
In the case of `N#CCC(=O)N/N=C1/C(=O)N(c2ccc(Cl)cc2)C(=O)C(=O)C1c1nc2ccccc2s1` (configuration not stated), the TGI was more than 100 µM.

On to `COc1ccc2c(c1)C(=O)CCc1cc(OC)c(OC)c(OC)c1-2`, for which the GI50 is less than 0.01 µM and the TGI turned out to be 16.9 µM.

On to `CC(C)CNc1nc(-c2ccccc2Cl)nc2ccccc12`, for which the GI50 was 20.3 µM and the TGI stood at 50 µM.

As for `COc1cc(NCC(C#N)C#N)ccc1N=Nc1ccc(Cl)cc1`, the TGI was found to be 31.7 µM.

On to `CC(=O)c1ccc(NC(=O)/C(CC(=O)c2sc(-c3cccnc3)nc2C)=N/NC(N)=O)cc1`, for which the TGI was 35.2 µM.

Consider `COc1ccc2c(c1)OC1=C(C(=O)OC1)C2c1cc(OC)c2c(c1)OCCO2` (configuration not stated), for which the GI50 is 0.0362 µM and the TGI turned out to be 0.13 µM.

In the case of `CCOc1cc(C(C)(C)C)ccc1C1=N[C@H](c2ccc(Cl)cc2)[C@H](c2ccc(Cl)cc2)N1C(=O)N1CCN(CC#Cc2cccc3c2CN([C@@H]2CCC(=O)NC2=O)C3=O)CC1`, the GI50 is 0.472 µM.

`CN(C)CCOc1ccc([N+](=O)[O-])c2cccnc12` showed a TGI of more than 100 µM.

With `OCC12C=CC(C1)c1ccccc12` (configuration not stated), the TGI was more than 100 µM.

As to `Cc1ccc(S(=O)(=O)N=Nc2c(O)[nH]c3cc(O)c(C(=O)O)cc23)cc1`, the TGI is more than 100 µM.

`NC(CCCC(N)P(=O)(O)O)P(=O)(O)O` (configuration not stated) gave a TGI of more than 100 µM.

Regarding `O=C(O)CCCc1ccc2ccc3ccccc3c2c1`, the TGI is more than 100 µM.

With `Cc1cc(Cl)ccc1OCC(=O)Nc1nc2c(Cl)cccc2s1`, the GI50 is more than 100 µM and the TGI is more than 100 µM.

Take `CCOC(=O)[CH-]C(=O)C12CC3CC(CC(C3)C1)C2.CCOC(=O)[CH-]C(=O)C12CC3CC(CC(C3)C1)C2.CC[O-].CC[O-].[Ti+4]`: the GI50 is more than 100 µM and the TGI is more than 100 µM.

`CSC(SC)(C(=O)O)c1cc(-c2c(Cl)cccc2Cl)no1` had a TGI of more than 100 µM.

`COc1ccc2nc3cc(Cl)ccc3c(Sc3ccc([N+](=O)[O-])cc3C)c2c1` gave a TGI of 46.1 µM.

The subject of another test is NCI-H23 lung. Nature of the test: NCI anticancer screen, dose series, 48 h.
`N#CCC(=O)N/N=C1/C(=O)N(c2ccc(Cl)cc2)C(=O)C(=O)C1c1nc2ccccc2s1` (configuration not stated): the TGI was more than 100 µM.

For the molecule `COc1ccc2c(c1)C(=O)CCc1cc(OC)c(OC)c(OC)c1-2`, the GI50 was less than 0.01 µM and the TGI stood at 0.0617 µM.

For `CC(C)CNc1nc(-c2ccccc2Cl)nc2ccccc12`, the GI50 is 16.2 µM and the TGI amounted to 31 µM.

`COc1cc(NCC(C#N)C#N)ccc1N=Nc1ccc(Cl)cc1` came in with a TGI of 65.4 µM.

Take `COc1ccc2c(c1)OC1=C(C(=O)OC1)C2c1cc(OC)c2c(c1)OCCO2` (configuration not stated): the GI50 is 0.0454 µM and the TGI is more than 100 µM.

On to `C=CC[P@]1(=O)O[C@H](c2ccccc2)[C@H](C)N1C`, for which the TGI is more than 100 µM.

Regarding `CCOc1cc(C(C)(C)C)ccc1C1=N[C@H](c2ccc(Cl)cc2)[C@H](c2ccc(Cl)cc2)N1C(=O)N1CCN(CC#Cc2cccc3c2CN([C@@H]2CCC(=O)NC2=O)C3=O)CC1`, the GI50 is 8.14 µM and the TGI is more than 100 µM.

In turn, `CN(C)CCOc1ccc([N+](=O)[O-])c2cccnc12` had a TGI of more than 100 µM.

Consider `OCC12C=CC(C1)c1ccccc12` (configuration not stated), for which the TGI is more than 100 µM.

`O=NNc1ccc2ccccc2n1`: the TGI is more than 100 µM.

For `Cc1ccc(S(=O)(=O)N=Nc2c(O)[nH]c3cc(O)c(C(=O)O)cc23)cc1`, the TGI is more than 100 µM.

For the molecule `NC(CCCC(N)P(=O)(O)O)P(=O)(O)O` (configuration not stated), the TGI was more than 100 µM.

As to `O=C(O)CCCc1ccc2ccc3ccccc3c2c1`, the TGI is more than 100 µM.

For `Cc1cc(Cl)ccc1OCC(=O)Nc1nc2c(Cl)cccc2s1`, the GI50 was 73 µM and the TGI was more than 100 µM.

As to `CCOC(=O)[CH-]C(=O)C12CC3CC(CC(C3)C1)C2.CCOC(=O)[CH-]C(=O)C12CC3CC(CC(C3)C1)C2.CC[O-].CC[O-].[Ti+4]`, the GI50 was more than 100 µM and the TGI is more than 100 µM.

In the case of `CSC(SC)(C(=O)O)c1cc(-c2c(Cl)cccc2Cl)no1`, the TGI came out at 79 µM.

With `COc1ccc2nc3cc(Cl)ccc3c(Sc3ccc([N+](=O)[O-])cc3C)c2c1`, the TGI is more than 100 µM.

Another test concerns NCI-H460 lung. Nature of the test: NCI anticancer screen, dose series, 48 h.
As for `COc1ccc2c(c1)C(=O)CCc1cc(OC)c(OC)c(OC)c1-2`, the GI50 is less than 0.01 µM and the TGI was more than 100 µM.

With `CC(C)CNc1nc(-c2ccccc2Cl)nc2ccccc12`, the GI50 is 18.3 µM and the TGI amounted to 36.1 µM.

For the molecule `COc1cc(NCC(C#N)C#N)ccc1N=Nc1ccc(Cl)cc1`, the TGI worked out at 52.9 µM.

As to `CC(=O)c1ccc(NC(=O)/C(CC(=O)c2sc(-c3cccnc3)nc2C)=N/NC(N)=O)cc1`, the TGI is more than 100 µM.

`COc1ccc2c(c1)OC1=C(C(=O)OC1)C2c1cc(OC)c2c(c1)OCCO2` (configuration not stated): the GI50 is 0.0408 µM and the TGI is more than 100 µM.

In turn, `C=CC[P@]1(=O)O[C@H](c2ccccc2)[C@H](C)N1C` yielded a TGI of more than 100 µM.

With `CCOc1cc(C(C)(C)C)ccc1C1=N[C@H](c2ccc(Cl)cc2)[C@H](c2ccc(Cl)cc2)N1C(=O)N1CCN(CC#Cc2cccc3c2CN([C@@H]2CCC(=O)NC2=O)C3=O)CC1`, the GI50 was 2.38 µM and the TGI was 11.7 µM.

Regarding `CN(C)CCOc1ccc([N+](=O)[O-])c2cccnc12`, the TGI was more than 100 µM.

As for `OCC12C=CC(C1)c1ccccc12` (configuration not stated), the TGI was more than 100 µM.

`O=NNc1ccc2ccccc2n1` returned a TGI of more than 100 µM.

`Cc1ccc(S(=O)(=O)N=Nc2c(O)[nH]c3cc(O)c(C(=O)O)cc23)cc1` displayed a TGI of more than 100 µM.

`NC(CCCC(N)P(=O)(O)O)P(=O)(O)O` (configuration not stated): the TGI is more than 100 µM.

Take `O=C(O)CCCc1ccc2ccc3ccccc3c2c1`: the TGI was more than 100 µM.

Consider `Cc1cc(Cl)ccc1OCC(=O)Nc1nc2c(Cl)cccc2s1`, for which the TGI was more than 100 µM.

As to `CCOC(=O)[CH-]C(=O)C12CC3CC(CC(C3)C1)C2.CCOC(=O)[CH-]C(=O)C12CC3CC(CC(C3)C1)C2.CC[O-].CC[O-].[Ti+4]`, the GI50 is more than 100 µM and the TGI is more than 100 µM.

For the molecule `CSC(SC)(C(=O)O)c1cc(-c2c(Cl)cccc2Cl)no1`, the TGI was more than 100 µM.

Molecule `COc1ccc2nc3cc(Cl)ccc3c(Sc3ccc([N+](=O)[O-])cc3C)c2c1` registered a TGI of more than 100 µM.

For the next test, the system named is SF-295 CNS. Description: NCI anticancer screen, dose series, 48 h.
`N#CCC(=O)N/N=C1/C(=O)N(c2ccc(Cl)cc2)C(=O)C(=O)C1c1nc2ccccc2s1` (configuration not stated) showed a TGI of more than 100 µM.

Consider `COc1ccc2c(c1)C(=O)CCc1cc(OC)c(OC)c(OC)c1-2`, for which the GI50 was less than 0.01 µM and the TGI is more than 100 µM.

For `CC(C)CNc1nc(-c2ccccc2Cl)nc2ccccc12`, the GI50 was 14.9 µM and the TGI was determined as 28.4 µM.

As to `COc1cc(NCC(C#N)C#N)ccc1N=Nc1ccc(Cl)cc1`, the TGI is 51.3 µM.

For the molecule `CC(=O)c1ccc(NC(=O)/C(CC(=O)c2sc(-c3cccnc3)nc2C)=N/NC(N)=O)cc1`, the TGI is more than 100 µM.

Turning to `COc1ccc2c(c1)OC1=C(C(=O)OC1)C2c1cc(OC)c2c(c1)OCCO2` (configuration not stated), the GI50 was 0.0312 µM and the TGI was more than 100 µM.

`C=CC[P@]1(=O)O[C@H](c2ccccc2)[C@H](C)N1C` returned a TGI of more than 100 µM.

As for `CCOc1cc(C(C)(C)C)ccc1C1=N[C@H](c2ccc(Cl)cc2)[C@H](c2ccc(Cl)cc2)N1C(=O)N1CCN(CC#Cc2cccc3c2CN([C@@H]2CCC(=O)NC2=O)C3=O)CC1`, the GI50 is 2.53 µM and the TGI was 19.2 µM.

As for `CN(C)CCOc1ccc([N+](=O)[O-])c2cccnc12`, the TGI is more than 100 µM.

`OCC12C=CC(C1)c1ccccc12` (configuration not stated) gave a TGI of more than 100 µM.

As for `O=NNc1ccc2ccccc2n1`, the TGI is more than 100 µM.

As to `Cc1ccc(S(=O)(=O)N=Nc2c(O)[nH]c3cc(O)c(C(=O)O)cc23)cc1`, the TGI is more than 100 µM.

Turning to `NC(CCCC(N)P(=O)(O)O)P(=O)(O)O` (configuration not stated), the TGI is more than 100 µM.

Molecule `O=C(O)CCCc1ccc2ccc3ccccc3c2c1` returned a TGI of more than 100 µM.

For the molecule `Cc1cc(Cl)ccc1OCC(=O)Nc1nc2c(Cl)cccc2s1`, the GI50 was 20.8 µM and the TGI is more than 100 µM.

For `CCOC(=O)[CH-]C(=O)C12CC3CC(CC(C3)C1)C2.CCOC(=O)[CH-]C(=O)C12CC3CC(CC(C3)C1)C2.CC[O-].CC[O-].[Ti+4]`, the GI50 was more than 100 µM and the TGI is more than 100 µM.

In turn, `CSC(SC)(C(=O)O)c1cc(-c2c(Cl)cccc2Cl)no1` registered a TGI of more than 100 µM.

The molecule `COc1ccc2nc3cc(Cl)ccc3c(Sc3ccc([N+](=O)[O-])cc3C)c2c1` returned a TGI of more than 100 µM.

For a further test, the system named is HL-60(TB) leukemia. Description: NCI anticancer screen, dose series, 48 h.
The molecule `CC(=O)c1ccc(NC(=O)/C(CC(=O)c2sc(-c3cccnc3)nc2C)=N/NC(N)=O)cc1` displayed a TGI of 72.9 µM.

Take `COc1ccc2c(c1)OC1=C(C(=O)OC1)C2c1cc(OC)c2c(c1)OCCO2` (configuration not stated): the GI50 is 0.042 µM and the TGI was 0.174 µM.

Turning to `C=CC[P@]1(=O)O[C@H](c2ccccc2)[C@H](C)N1C`, the TGI is more than 100 µM.

In the case of `CN(C)CCOc1ccc([N+](=O)[O-])c2cccnc12`, the TGI is more than 100 µM.

`OCC12C=CC(C1)c1ccccc12` (configuration not stated) displayed a TGI of more than 100 µM.

In the case of `O=NNc1ccc2ccccc2n1`, the TGI was more than 100 µM.

With `Cc1cc(Cl)ccc1OCC(=O)Nc1nc2c(Cl)cccc2s1`, the GI50 was 5.63 µM and the TGI was more than 100 µM.

Consider `CCOC(=O)[CH-]C(=O)C12CC3CC(CC(C3)C1)C2.CCOC(=O)[CH-]C(=O)C12CC3CC(CC(C3)C1)C2.CC[O-].CC[O-].[Ti+4]`, for which the GI50 was more than 100 µM and the TGI is more than 100 µM.

Another test has as its system 786-0 renal. Nature of the test: NCI anticancer screen, dose series, 48 h.
As for `N#CCC(=O)N/N=C1/C(=O)N(c2ccc(Cl)cc2)C(=O)C(=O)C1c1nc2ccccc2s1` (configuration not stated), the TGI is more than 100 µM.
